The nature of data set [1]: Pharmacokinetics of GQD constituents in the portal vein of mice after oral GQD. As to conditions: both, Kunming, mouse, portal vein plasma, portal vein plasma, mice; for Tmax: po, oral GQD extract […], read-out: Tmax; for Cmax / MRT / AUC(0-t) / half-life: oral GQD extract 6.1 g/kg; for AUC(0-t): read-out: AUC0–24 h; for half-life: read-out: T1/2 (converted). In kind it is in vivo, Kunming mice. On the procedure:
(§1) Fifty-four Kunming mice were randomly divided into nine groups according to body weight and gender (3 male and three female in each group). Each group was orally administered with water solution (0.2 ml/10 g body weight) of the GQD extract powder at the dosage of 6.1 g/kg body weight. The dosage of GQD extract powder equals to 18 g/kg herbal pieces of GQD, which is equivalent to its clinical dosage. At each designed time point (0.08, 0.25, 0.5, 1, 2, 4, 8, 12, and 24 h) after oral administration, six mice were anesthetized with ether, and blood was collected from the portal vein (about 0.2 ml, aspirated in a 1 ml heparinized syringe) and then the systemic circulation (about 0.2 ml, collected in heparinized tubes after removal of the eyeball) of the mice to prepare plasma samples, and the livers and the colons were removed to prepare respective homogenate. After pretreatment, the concentrations of 19 major constituents of GQD in each sample were measured by the validated LC-MS/MS method (see “2.3”). Then the C-T curves of the constituents in the plasma and the tissue homogenates were respectively drawn and their pharmacokinetic parameters were respectively calculated.
(§2) It should be noted that the pharmacokinetic parameters of a GQD constituent was calculated based on its average concentration in six mice at each time point. The results were expressed as mean ± SD.

Data set [2] in a line: Pharmacokinetics/tissue distribution of GQD constituents in the livers of mice after oral GQD. In kind it is in vivo, Kunming mice. As to conditions: liver, mice; for half-life / Cmax / MRT / Tmax: both, Kunming, mouse, liver (homogenate); for half-life: po, read-out: T1/2 (converted); for half-life / T1/2: oral GQD extract […]; for Cmax / MRT / Tmax: oral GQD extract 6.1 g/kg; for Tmax: read-out: Tmax. How it is done:
(§3) The liver and the colon homogenates were prepared with 10 times (V: W) the volume of ascorbic acid solution (200 μg/ml). Then the homogenates were pretreated as plasma to obtain the tissue samples for LC-MS/MS analysis. Fifty-four Kunming mice were randomly divided into nine groups according to body weight and gender (3 male and three female in each group). […] Then the C-T curves of the constituents in the plasma and the tissue homogenates were respectively drawn and their pharmacokinetic parameters were respectively calculated. […] It should be noted that the pharmacokinetic parameters of a GQD constituent was calculated based on its average concentration in six mice at each time point. The results were expressed as mean ± SD.

The nature of data set [3]: Pharmacokinetics of GQD constituents in the systemic circulation of mice after oral GQD. In kind it is in vivo, Kunming mice. As to conditions: systemic circulation plasma, systemic circulation plasma, mice; for half-life / Tmax / Cmax / MRT / AUC(0-t): both, Kunming, mouse; for half-life / Tmax: po; for half-life: read-out: T1/2 (converted); for Tmax: read-out: Tmax; for Cmax / MRT / AUC(0-t): oral GQD 6.1 g/kg; for AUC(0-t): read-out: AUC0–24 h. How it is done:
as §1, §2

On the set-up of data set [4]: method as in Zhai et al., 2020. As to conditions: at 10 μM; ref Zhai et al., 2020; cited from earlier work.
Data set [5] in a line: Pharmacokinetics/tissue distribution of GQD constituents in the colons of mice after oral GQD. In kind it is in vivo, Kunming mice. As to conditions: colon, mice; for half-life / Cmax / MRT / Tmax: both, Kunming, mouse, colon (homogenate); for half-life: po, read-out: T1/2 (converted); for half-life / T1/2: oral GQD extract […]; for Cmax / MRT / Tmax: oral GQD extract 6.1 g/kg; for Tmax: read-out: Tmax. How it is done: as §3

The subject of data set [6] is dextran sodium sulfate-induced ulcerative colitis model mice. Set-up: method as in Dong et al., 2022. As to conditions: oral 40 mg/kg for 7 days, DSS-induced ulcerative colitis model mice; ref Dong et al., 2022; cited from earlier work.
The test system of data set [7] is rats with irritable bowel syndrome. Also on record: method as in Wang et al., 2021. As to conditions: oral 6–24 mg/kg, ref Wang et al., 2021; cited from earlier work.
The test system of data set [8] is dextran sodium sulfate-induced colitis. Set-up: method as in Jeon et al., 2020. As to conditions: oral 10 or 50 mg/kg; ref Jeon et al., 2020; cited from earlier work.

Marks after values point to notes of the source that are not given here.

As for `COc1ccc2cc3[n+](cc2c1OC)CCc1cc2c(cc1-3)OCO2` [Berberine, berberine], in data set [1], the Tmax (as a rule, the time from dosing to the highest level) worked out at 4 h; the Cmax – broadly, the maximum level reached in the sampled fluid or tissue – was 191 ng/mL; the MRT (usually a mean duration of stay, worked out from the concentration-time curve) stood at 5.5 h; the AUC(0-t) is 1420 ng·h/mL. Also, in data set [1], the half-life was 8 h. In data set [2], the half-life is roughly 10 h, the peak level (Cmax) was 427 ng/g, the MRT came to 8.3 h and the Tmax stood at 4 h. In data set [2], the T1/2 is 10.1# h. In data set [3] (oral GQD […]), the half-life is roughly 6 h, the Tmax was 1 h and the T1/2 worked out at 5.3 h. Moreover, in data set [3], the Cmax came to 85.4 ng/mL, the mean residence time (MRT) was found to be 5.4 h and the AUC(0-t) came out at 419 ng·h/mL. Besides, the anti-inflammatory effect entry in data set [4] is “significant anti-inflammatory effect”. For the same molecule, in data set [5], the half-life was 3.5 h, the Cmax came to 6230 ng/g, the MRT came out at 6 h and the Tmax came out at 4 h. The “effect on intestinal mucosal barrier function and inflammatory reaction” value in data set [6] is on record as “significantly improved intestinal mucosal barrier function”.
For the molecule `O=c1c(-c2ccc(O)cc2)coc2c([C@@H]3O[C@H](CO)[C@@H](O)[C@H](O)[C@H]3O)c(O)ccc12` [Puerarin, puerarin], in data set [1], the Tmax was 0.25 to 0.5 h, the Cmax is 1990 ng/mL, the MRT stood at 3.2 h and the AUC(0-t) was 6710 ng·h/mL. Further, the half-life in data set [1] is 2.9 h. In data set [7], the “effect on irritable bowel syndrome symptoms” value was “improved symptoms of rats with irritable bowel syndrome”. Further, in data set [8], the “effect on dextran sodium sulfate-induced colitis” value is reported as “alleviated dextran sodium sulfate-induced colitis”. Moreover, in data set [2], the half-life is 3 to 4 h, the Cmax was 2870 ng/g, the MRT was 3.8 h and the Tmax amounted to 0.5 h. Moreover, in data set [2], the T1/2 is given as 4.0 h. Besides, in data set [3] (oral GQD […]), the half-life was 3.4 h and the Tmax fell in the range of 0.25 to 0.5 h. Also, in data set [3], the Cmax was determined as 1580 ng/mL, the MRT was 3.3 h and the AUC(0-t) was 5230 ng·h/mL. Besides, in data set [5], the half-life was 1 to 4 h, the concentration peaked (Cmax) at 61600 ng/g, the MRT came to 5.9 h and the Tmax stood at 4 h. The T1/2 in data set [5] came to 1.3 h.
As to `COc1c(O)cc(O)c2c(=O)cc(-c3ccccc3)oc12` [Wogonin, wogonin], in data set [1], the Tmax amounted to 2 h, the highest concentration (Cmax) amounted to 1220 ng/mL, the MRT amounted to 3.3 h and the AUC(0-t) is 4510 ng·h/mL. Moreover, the half-life in data set [1] was 1 h. Further, in data set [2], the half-life is 2 to 3 h, the highest level (Cmax) was 839 ng/g, the MRT is 5 h and the Tmax was determined as 4 h. The same molecule gave a T1/2 in data set [2] of 2.6 h. Further, in data set [3] (oral GQD […]), the half-life was 1.5 h and the Tmax came out at 2 h. For the same molecule, in data set [3], the Cmax worked out at 64.7 ng/mL, the MRT was 3.6 h and the AUC(0-t) is 300 ng·h/mL. In addition, in data set [5], the half-life was 2 to 3 h, the highest level (Cmax) was 535 ng/g, the MRT was found to be 6.1 h and the Tmax was 4 h. This molecule showed a T1/2 in data set [5] of 3.2 h.
